Assay results from US9242970B2 (ACTELION PHARMACEUTICALS LTD., priority 2010, dated 2016).
Read-outs that look alike come from different tables or passages of the source.

How the values were obtained:
human orexin-2 receptor = human orexin-2 receptor (Homo sapiens (Human), UniProt O43614); experiment: In vitro assay: intracellular calcium measurements (FLIPR), antagonistic activity; assay type: cell-based; details: CHO cells, 3 nM orexin-A, marked values are geometric means of n = 2-6, read-out: IC50 OX2
Sequence of human orexin-2 receptor (O43614 whole entry): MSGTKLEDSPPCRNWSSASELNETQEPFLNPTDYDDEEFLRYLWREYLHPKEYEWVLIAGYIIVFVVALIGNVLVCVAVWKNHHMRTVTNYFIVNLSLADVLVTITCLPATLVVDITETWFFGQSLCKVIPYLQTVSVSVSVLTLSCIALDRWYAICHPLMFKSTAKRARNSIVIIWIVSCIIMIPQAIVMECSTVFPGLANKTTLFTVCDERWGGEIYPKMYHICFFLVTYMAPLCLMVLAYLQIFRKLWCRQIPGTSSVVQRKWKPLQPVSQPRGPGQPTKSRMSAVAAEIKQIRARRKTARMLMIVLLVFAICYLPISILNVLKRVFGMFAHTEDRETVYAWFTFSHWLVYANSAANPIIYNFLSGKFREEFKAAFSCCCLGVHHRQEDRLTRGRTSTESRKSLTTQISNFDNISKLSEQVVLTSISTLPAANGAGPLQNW

human orexin-1 receptor = human orexin-1 receptor (Homo sapiens (Human), UniProt O43613); experiment: as above; assay type: cell-based; details: CHO cells, 3 nM orexin-A, marked values are geometric means of n = 2-6, read-out: IC50 OX1
Sequence of human orexin-1 receptor (O43613 whole entry): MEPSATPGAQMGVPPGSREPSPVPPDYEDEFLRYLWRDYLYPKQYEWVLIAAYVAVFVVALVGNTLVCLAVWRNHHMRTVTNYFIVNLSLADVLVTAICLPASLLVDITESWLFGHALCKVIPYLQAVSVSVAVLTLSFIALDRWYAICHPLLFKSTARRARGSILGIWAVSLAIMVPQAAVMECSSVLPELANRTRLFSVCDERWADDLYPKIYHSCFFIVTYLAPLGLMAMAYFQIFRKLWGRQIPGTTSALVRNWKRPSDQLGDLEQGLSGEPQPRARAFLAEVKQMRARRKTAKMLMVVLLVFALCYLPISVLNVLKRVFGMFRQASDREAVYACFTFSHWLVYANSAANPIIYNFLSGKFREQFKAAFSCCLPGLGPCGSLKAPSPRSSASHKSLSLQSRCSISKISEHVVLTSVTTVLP

[1] = compound incubation time of 10 min

COc1cccc(OC)c1C1CCCC(=O)N1Cc1ccc(OC(F)F)cc1 (stereo not shown) [Example 165, 1-(4-(difluoromethoxy)benzyl)-6-(2,6-dimethoxyphenyl)piperidin-2-one]
IC50 (human orexin-2 receptor; [1]): 31 nM
IC50 (human orexin-1 receptor; [1]): 224 nM

COc1cccc(OC)c1C1CCCC(=O)N1Cc1ccc2c(c1)OCO2 (stereo not shown) [Example 166, 1-(benzo[d][1,3]dioxol-5-ylmethyl)-6-(2,6-dimethoxyphenyl)piperidin-2-one]
IC50 (human orexin-2 receptor; [1]): 549 nM
IC50 (human orexin-1 receptor; [1]): 1720 nM

COc1cc(Cl)cc(OC)c1C1CCCC(=O)N1Cc1ccc(OC(F)(F)F)cc1 (stereo not shown) [Example 167, 6-(4-chloro-2,6-dimethoxyphenyl)-1-(4-(trifluoromethoxy)benzyl)piperidin-2-one]
IC50 (human orexin-2 receptor; [1]): 28 nM
IC50 (human orexin-1 receptor; [1]): 231 nM

COc1cccc(OC)c1C1CCCC(=O)N1Cc1ccc(-n2cccn2)cc1 (stereo not shown) [Example 168, 1-(4-(1H-pyrazol-1-yl)benzyl)-6-(2,6-dimethoxyphenyl)piperidin-2-one]
IC50 (human orexin-2 receptor; [1]): 453 nM
IC50 (human orexin-1 receptor; [1]): 1820 nM

COc1cccc(OC)c1C1CCCC(=O)N1Cc1ccc(-n2cccc2)cc1 (stereo not shown) [Example 169, 1-(4-(1H-pyrrol-1-yl)benzyl)-6-(2,6-dimethoxyphenyl)piperidin-2-one]
IC50 (human orexin-2 receptor; [1]): 190 nM
IC50 (human orexin-1 receptor; [1]): 1590 nM

COc1cccc(OC)c1C1CCCC(=O)N1Cc1ccc2nonc2c1 (stereo not shown) [Example 170, 1-(benzo[c][1,2,5]oxadiazol-5-ylmethyl)-6-(2,6-dimethoxyphenyl)piperidin-2-one]
IC50 (human orexin-2 receptor; [1]): 766 nM
IC50 (human orexin-1 receptor; [1]): 2390 nM

COc1ccc2cc(CN3C(=O)CCCC3c3c(OC)cccc3OC)ccc2c1 (stereo not shown) [Example 171, 6-(2,6-dimethoxyphenyl)-1-((6-methoxynaphthalen-2-yl)methyl)piperidin-2-one]
IC50 (human orexin-2 receptor; [1]): 66 nM
IC50 (human orexin-1 receptor; [1]): 122 nM

COc1cc(OC)c(C2CCCC(=O)N2Cc2ccc(OC(F)(F)F)cc2)c(OC)c1 (stereo not shown) [Example 172, 1-(4-(trifluoromethoxy)benzyl)-6-(2,4,6-trimethoxyphenyl)piperidin-2-one]
IC50 (human orexin-2 receptor; [1]): 106 nM
IC50 (human orexin-1 receptor; [1]): 330 nM

COc1cccc(OC)c1C1CC(C)CC(=O)N1Cc1ccc(OC(F)(F)F)cc1 (stereo not shown) [Example 173, 6-(2,6-dimethoxyphenyl)-4-methyl-1-(4-(trifluoromethoxy)benzyl)piperidin-2-one]
IC50 (human orexin-2 receptor; [1]): 297 nM
IC50 (human orexin-1 receptor; [1]): 537 nM

COc1cccc(OC)c1C1CC(C)(C)CC(=O)N1Cc1ccc(OC(F)(F)F)cc1 (stereo not shown) [Example 174, 6-(2,6-dimethoxyphenyl)-4,4-dimethyl-1-(4(trifluoromethoxy)benzyl)piperidin-2-one]
IC50 (human orexin-2 receptor; [1]): 1080 nM
IC50 (human orexin-1 receptor; [1]): 1800 nM

COc1cccc(OC)c1C1CCCC(=O)N1Cc1cccc(OC(F)(F)F)c1 (stereo not shown) [Example 175, 6-(2,6-dimethoxyphenyl)-1-(3-(trifluoromethoxy)benzyl)piperidin-2-one]
IC50 (human orexin-2 receptor; [1]): 94 nM
IC50 (human orexin-1 receptor; [1]): 136 nM

COc1cccc(OC)c1C1CCCC(=O)N1Cc1ccc(OCCF)cc1 (stereo not shown) [Example 176, 6-(2,6-dimethoxyphenyl)-1-(4-(2-fluoroethoxy)benzyl)piperidin-2-one]
IC50 (human orexin-2 receptor; [1]): 61 nM
IC50 (human orexin-1 receptor; [1]): 327 nM

COc1cccc(OC)c1C1CCCC(=O)N1Cc1ccc(OC(F)F)nc1 (stereo not shown) [Example 177, 1-((6-(difluoromethoxy)pyridin-3-yl)methyl)-6-(2,6-dimethoxyphenyl)piperidin-2-one]
IC50 (human orexin-2 receptor; [1]): 92 nM
IC50 (human orexin-1 receptor; [1]): 354 nM

COc1cccc(OC)c1C1CCCC(=O)N1Cc1cccc(OC(F)F)c1 (stereo not shown) [Example 178, 1-(3-(difluoromethoxy)benzyl)-6-(2,6-dimethoxyphenyl)piperidin-2-one]
IC50 (human orexin-2 receptor; [1]): 78 nM
IC50 (human orexin-1 receptor; [1]): 215 nM

COc1cccc(OC)c1C1CCCC(=O)N1Cc1cccc(Oc2ccccc2)c1 (stereo not shown) [Example 179, 6-(2,6-dimethoxyphenyl)-1-(3-phenoxybenzyl)piperidin-2-one]
IC50 (human orexin-2 receptor; [1]): 42 nM
IC50 (human orexin-1 receptor; [1]): 225 nM

COc1cccc(OC)c1C1CCCC(=O)N1Cc1cc2ccccc2o1 (stereo not shown) [Example 180, 1-(benzofuran-2-ylmethyl)-6-(2,6-dimethoxyphenyl)piperidin-2-one]
IC50 (human orexin-2 receptor; [1]): 170 nM
IC50 (human orexin-1 receptor; [1]): 1450 nM

COc1cccc(OC)c1C1CCCC(=O)N1Cc1cc2ccccc2s1 (stereo not shown) [Example 181, 1-(benzo[b]thiophen-2-ylmethyl)-6-(2,6-dimethoxyphenyl)piperidin-2-one]
IC50 (human orexin-2 receptor; [1]): 252 nM
IC50 (human orexin-1 receptor; [1]): 805 nM

COc1cccc(OC)c1C1CCCC(=O)N1Cc1ccc2c(c1)OC(F)(F)O2 (stereo not shown) [Example 182, 1-((2,2-difluorobenzo[d][1,3]dioxol-5-yl)methyl)-6-(2,6-dimethoxyphenyl)piperidin-2-one]
IC50 (human orexin-2 receptor; [1]): 178 nM
IC50 (human orexin-1 receptor; [1]): 283 nM

COc1cccc(OC)c1C1CCCC(=O)N1Cc1cccc(OC(F)F)n1 (stereo not shown) [Example 183, 1-((6-(difluoromethoxy)pyridin-2-yl)methyl)-6-(2,6-dimethoxyphenyl)piperidin-2-one]
IC50 (human orexin-2 receptor; [1]): 64 nM
IC50 (human orexin-1 receptor; [1]): 644 nM

COc1cccc(OC)c1C1CCCC(=O)N1C(C)c1cnc(OC(F)F)c(Cl)c1 (stereo not shown) [Example 185, 1-(1-(5-chloro-6-(difluoromethoxy)pyridin-3-yl)ethyl)-6-(2,6-dimethoxyphenyl)piperidin-2-one]
IC50 (human orexin-2 receptor; [1]): 34 nM
IC50 (human orexin-1 receptor; [1]): 323 nM

CCC(c1ccc(OC(F)(F)F)cc1)N1C(=O)CCCC1c1c(OC)cccc1OC (stereo not shown) [Example 186, 6-(2,6-dimethoxyphenyl)-1-(1-(4-(trifluoromethoxy)phenyl)propyl)piperidin-2-one]
IC50 (human orexin-2 receptor; [1]): 5650 nM
IC50 (human orexin-1 receptor; [1]): 2770 nM

COc1cccc(OC)c1C1CCCC(=O)N1Cc1ccc(OC(F)F)cn1 (stereo not shown) [Example 187, 1-((5-(difluoromethoxy)pyridin-2-yl)methyl)-6-(2,6-dimethoxyphenyl)piperidin-2-one]
IC50 (human orexin-2 receptor; [1]): 70 nM
IC50 (human orexin-1 receptor; [1]): 235 nM

COc1cccc(OC)c1C1CCCC(=O)N1Cc1cc(OC(F)F)ccn1 (stereo not shown) [Example 188, 1-((4-(difluoromethoxy)pyridin-2-yl)methyl)-6-(2,6-dimethoxyphenyl)piperidin-2-one]
IC50 (human orexin-2 receptor; [1]): 484 nM
IC50 (human orexin-1 receptor; [1]): 4180 nM

COc1cccc(OC)c1C1CCCC(=O)N1Cc1cccc(-c2ccccc2)c1 (stereo not shown) [Example 189, 1-([1,1′-biphenyl]-3-ylmethyl)-6-(2,6-dimethoxyphenyl)piperidin-2-one]
IC50 (human orexin-2 receptor; compound incubation 120 min): 12 nM
IC50 (human orexin-1 receptor; compound incubation 120 min): 17 nM

COc1cccc(OC)c1C1CCCC(=O)N1Cc1ccccc1-c1ccccc1 (stereo not shown) [Example 190, 1-([1,1′-biphenyl]-2-ylmethyl)-6-(2,6-dimethoxyphenyl)piperidin-2-one]
IC50 (human orexin-2 receptor; [1]): 507 nM
IC50 (human orexin-1 receptor; [1]): 1950 nM

COc1cccc(OC)c1C1CCCC(=O)N1Cc1ccccc1Oc1ccccc1 (stereo not shown) [Example 191, 6-(2,6-dimethoxyphenyl)-1-(2-phenoxybenzyl)piperidin-2-one]
IC50 (human orexin-2 receptor; [1]): 50 nM
IC50 (human orexin-1 receptor; [1]): 373 nM

COc1cccc(OC)c1C1CCCC(=O)N1Cc1ccc(Oc2ccccc2)nc1 (stereo not shown) [Example 192, 6-(2,6-dimethoxyphenyl)-1-((6-phenoxypyridin-3-yl)methyl)piperidin-2-one]
IC50 (human orexin-2 receptor; [1]): 29 nM
IC50 (human orexin-1 receptor; [1]): 361 nM

COc1cccc(OC)c1C1CCCCC(=O)N1Cc1ccc(OC(F)(F)F)cc1 (stereo not shown) [Example 193, 7-(2,6-dimethoxyphenyl)-1-(4-(trifluoromethoxy)benzyl)azepan-2-one]
IC50 (human orexin-2 receptor; [1]): 66 nM
IC50 (human orexin-1 receptor; [1]): 257 nM

CCOc1ccccc1C1CCC(=O)N1Cc1ccc(F)cc1 (stereo not shown) [Example 194, 5-(2-ethoxyphenyl)-1-(4-fluorobenzyl)pyrrolidin-2-one]
IC50 (human orexin-2 receptor; [1]): 669 nM
IC50 (human orexin-1 receptor; [1]): > 12700 nM
